Test results from the kinase profiling compilation of Christmann-Franck et al. (2016).
Several values for one entry are separate records, joined by “and”; a condition that tells them apart may be missing. Equal values may be shown once.

Key:
Test in all cases: KINOMEscan competition binding
Conditions in all cases: compound 10.0 µM
[1] = tested on: ABL1 (human), P00519 [T315I]
ABL2 (human) = ABL2 (human) (UniProt P42684)
ADCK4 (human) = ADCK4 (human) (UniProt Q96D53)
AKT1 (human) = AKT1 (human) (UniProt P31749)
CAMK1 (human) = CAMK1 (human) (UniProt Q14012)
CAMK2B (human) = CAMK2B (human) (UniProt Q13554)
Sequence of CAMK2B (human) (Q13554 whole entry, looked up): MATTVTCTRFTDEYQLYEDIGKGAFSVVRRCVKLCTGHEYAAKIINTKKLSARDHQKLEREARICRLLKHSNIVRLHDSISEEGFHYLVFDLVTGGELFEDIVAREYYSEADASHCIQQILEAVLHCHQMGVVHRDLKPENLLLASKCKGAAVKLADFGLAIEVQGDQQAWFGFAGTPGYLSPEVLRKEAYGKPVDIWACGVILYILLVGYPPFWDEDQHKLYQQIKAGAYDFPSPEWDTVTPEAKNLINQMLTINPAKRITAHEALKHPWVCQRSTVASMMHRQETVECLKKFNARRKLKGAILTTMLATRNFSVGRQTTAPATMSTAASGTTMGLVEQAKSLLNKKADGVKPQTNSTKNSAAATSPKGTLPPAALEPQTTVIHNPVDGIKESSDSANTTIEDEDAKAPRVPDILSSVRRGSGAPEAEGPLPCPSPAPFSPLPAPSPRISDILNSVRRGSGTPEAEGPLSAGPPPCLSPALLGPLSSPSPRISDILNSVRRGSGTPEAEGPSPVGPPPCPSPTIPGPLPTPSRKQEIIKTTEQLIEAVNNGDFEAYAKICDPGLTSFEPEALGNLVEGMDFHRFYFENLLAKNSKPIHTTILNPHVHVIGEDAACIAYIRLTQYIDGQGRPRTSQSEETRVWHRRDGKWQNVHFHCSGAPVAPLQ

CDK2 (human) = CDK2 (human) (UniProt P24941)
CSF1R (human) = CSF1R (human) (UniProt P07333)
EGFR (human) = EGFR (human) (UniProt P00533)
[2] = tested on: EGFR (human), P00533 [752-759 del]
[3] = tested on: EGFR (human), P00533 [L861Q]
EPHB2 (human) = EPHB2 (human) (UniProt P29323)
Sequence of EPHB2 (human) (P29323 whole entry, looked up): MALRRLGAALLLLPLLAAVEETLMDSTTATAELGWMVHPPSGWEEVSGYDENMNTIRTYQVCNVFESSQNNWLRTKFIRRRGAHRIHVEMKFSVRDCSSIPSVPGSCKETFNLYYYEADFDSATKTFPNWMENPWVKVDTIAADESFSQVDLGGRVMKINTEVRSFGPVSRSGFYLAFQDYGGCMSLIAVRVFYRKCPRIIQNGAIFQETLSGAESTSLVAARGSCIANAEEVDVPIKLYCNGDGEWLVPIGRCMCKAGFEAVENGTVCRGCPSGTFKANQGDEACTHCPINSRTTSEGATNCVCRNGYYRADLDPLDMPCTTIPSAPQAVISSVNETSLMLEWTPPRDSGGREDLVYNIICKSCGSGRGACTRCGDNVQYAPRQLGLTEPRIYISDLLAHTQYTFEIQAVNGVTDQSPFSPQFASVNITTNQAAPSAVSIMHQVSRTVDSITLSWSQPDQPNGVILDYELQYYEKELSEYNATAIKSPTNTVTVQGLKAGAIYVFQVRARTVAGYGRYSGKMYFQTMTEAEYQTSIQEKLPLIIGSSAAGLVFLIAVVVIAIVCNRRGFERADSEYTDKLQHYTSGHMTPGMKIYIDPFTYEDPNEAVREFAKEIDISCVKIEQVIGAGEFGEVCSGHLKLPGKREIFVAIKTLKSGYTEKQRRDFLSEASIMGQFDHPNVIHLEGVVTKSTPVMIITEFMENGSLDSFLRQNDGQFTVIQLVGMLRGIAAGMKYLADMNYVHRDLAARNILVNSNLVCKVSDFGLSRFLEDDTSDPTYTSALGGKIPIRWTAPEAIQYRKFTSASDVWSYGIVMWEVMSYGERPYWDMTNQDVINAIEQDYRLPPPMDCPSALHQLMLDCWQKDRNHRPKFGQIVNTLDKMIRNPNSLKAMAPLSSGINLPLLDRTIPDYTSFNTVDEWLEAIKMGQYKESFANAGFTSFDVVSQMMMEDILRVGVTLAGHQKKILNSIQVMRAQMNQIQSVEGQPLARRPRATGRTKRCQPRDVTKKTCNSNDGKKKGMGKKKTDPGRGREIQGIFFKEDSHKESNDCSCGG

ERBB2 (human) = ERBB2 (human) (UniProt P04626)
FES (human) = FES (human) (UniProt P07332)
FGR (human) = FGR (human) (UniProt P09769)
Sequence of FGR (human) (P09769 whole entry, looked up): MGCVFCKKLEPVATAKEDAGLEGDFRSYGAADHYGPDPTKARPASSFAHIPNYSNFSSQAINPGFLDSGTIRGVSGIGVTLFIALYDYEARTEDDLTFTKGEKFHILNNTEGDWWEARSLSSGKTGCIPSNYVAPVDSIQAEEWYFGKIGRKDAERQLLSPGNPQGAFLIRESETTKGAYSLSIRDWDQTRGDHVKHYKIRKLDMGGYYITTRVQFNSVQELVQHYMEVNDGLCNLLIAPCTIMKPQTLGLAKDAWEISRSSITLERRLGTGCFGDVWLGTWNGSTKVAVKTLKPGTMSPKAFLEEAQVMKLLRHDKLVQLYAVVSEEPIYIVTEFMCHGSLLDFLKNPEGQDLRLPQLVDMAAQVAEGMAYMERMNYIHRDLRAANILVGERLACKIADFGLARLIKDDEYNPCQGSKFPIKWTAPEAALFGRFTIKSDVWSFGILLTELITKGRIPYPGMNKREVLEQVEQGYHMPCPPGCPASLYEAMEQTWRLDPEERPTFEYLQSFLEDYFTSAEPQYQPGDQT

FLT1 (human) = FLT1 (human) (UniProt P17948)
HCK (human) = HCK (human) (UniProt P08631)
IRAK3 (human) = IRAK3 (human) (UniProt Q9Y616)
LIMK1 (human) = LIMK1 (human) (UniProt P53667)
MAP3K10 (human) = MAP3K10 (human) (UniProt Q02779)
MAP3K4 (human) = MAP3K4 (human) (UniProt Q9Y6R4)
MAP4K5 (human) = MAP4K5 (human) (UniProt Q9Y4K4)
MAPK10 (human) = MAPK10 (human) (UniProt P53779)
MAPK3 (human) = MAPK3 (human) (UniProt P27361)
Sequence of MAPK3 (human) (P27361 whole entry, looked up): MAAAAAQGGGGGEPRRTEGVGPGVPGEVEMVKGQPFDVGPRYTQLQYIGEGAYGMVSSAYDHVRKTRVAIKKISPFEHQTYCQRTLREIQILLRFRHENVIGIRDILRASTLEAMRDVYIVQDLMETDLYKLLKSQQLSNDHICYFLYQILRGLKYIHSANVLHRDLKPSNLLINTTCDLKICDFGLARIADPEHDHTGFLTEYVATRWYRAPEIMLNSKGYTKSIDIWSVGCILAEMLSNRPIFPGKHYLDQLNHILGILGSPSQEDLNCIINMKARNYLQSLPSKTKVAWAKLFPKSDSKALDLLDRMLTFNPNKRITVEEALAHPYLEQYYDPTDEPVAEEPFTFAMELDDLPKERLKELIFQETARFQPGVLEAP

MAPKAPK2 (human) = MAPKAPK2 (human) (UniProt P49137)
Sequence of MAPKAPK2 (human) (P49137 whole entry, looked up): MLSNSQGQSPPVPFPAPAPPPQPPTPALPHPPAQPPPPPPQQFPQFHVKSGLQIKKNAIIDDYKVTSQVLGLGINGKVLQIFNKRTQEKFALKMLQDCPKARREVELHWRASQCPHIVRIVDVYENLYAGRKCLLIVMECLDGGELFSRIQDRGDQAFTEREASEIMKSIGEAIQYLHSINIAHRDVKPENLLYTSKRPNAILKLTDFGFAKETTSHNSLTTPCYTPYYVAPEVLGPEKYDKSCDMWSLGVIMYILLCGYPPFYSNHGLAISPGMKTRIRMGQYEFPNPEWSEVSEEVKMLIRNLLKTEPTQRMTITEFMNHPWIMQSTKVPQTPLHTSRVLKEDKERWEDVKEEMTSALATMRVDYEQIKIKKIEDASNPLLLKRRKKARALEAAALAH

MERTK (human) = MERTK (human) (UniProt Q12866)
MST1R (human) = MST1R (human) (UniProt Q04912)
NEK5 (human) = NEK5 (human) (UniProt Q6P3R8)
NLK (human) = NLK (human) (UniProt Q9UBE8)
NUAK2 (human) = NUAK2 (human) (UniProt Q9H093)
PIK3CA (human) = PIK3CA (human) (UniProt P42336)
PRKACB (human) = PRKACB (human) (UniProt P22694)
PRKCE (human) = PRKCE (human) (UniProt Q02156)
PRKCH (human) = PRKCH (human) (UniProt P24723)
PTK2B (human) = PTK2B (human) (UniProt Q14289)
SGK110 (human) = SGK110 (human) (UniProt P0C264)
Sequence of SGK110 (human) (P0C264 whole entry, looked up): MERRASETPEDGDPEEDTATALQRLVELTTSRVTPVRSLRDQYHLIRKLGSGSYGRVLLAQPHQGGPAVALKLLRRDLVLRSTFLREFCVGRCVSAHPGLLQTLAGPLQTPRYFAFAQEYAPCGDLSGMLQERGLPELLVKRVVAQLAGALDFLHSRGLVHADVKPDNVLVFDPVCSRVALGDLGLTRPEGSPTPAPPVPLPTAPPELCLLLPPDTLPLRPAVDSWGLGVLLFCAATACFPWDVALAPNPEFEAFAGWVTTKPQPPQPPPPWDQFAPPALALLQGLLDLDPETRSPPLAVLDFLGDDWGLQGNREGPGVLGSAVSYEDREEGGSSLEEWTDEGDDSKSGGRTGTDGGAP

SRPK1 (human) = SRPK1 (human) (UniProt Q96SB4)
STK32B (human) = STK32B (human) (UniProt Q9NY57)
SYK (human) = SYK (human) (UniProt P43405)
TYRO3 (human) = TYRO3 (human) (UniProt Q06418)
ULK1 (human) = ULK1 (human) (UniProt O75385)
Sequence of ULK1 (human) (O75385 whole entry, looked up): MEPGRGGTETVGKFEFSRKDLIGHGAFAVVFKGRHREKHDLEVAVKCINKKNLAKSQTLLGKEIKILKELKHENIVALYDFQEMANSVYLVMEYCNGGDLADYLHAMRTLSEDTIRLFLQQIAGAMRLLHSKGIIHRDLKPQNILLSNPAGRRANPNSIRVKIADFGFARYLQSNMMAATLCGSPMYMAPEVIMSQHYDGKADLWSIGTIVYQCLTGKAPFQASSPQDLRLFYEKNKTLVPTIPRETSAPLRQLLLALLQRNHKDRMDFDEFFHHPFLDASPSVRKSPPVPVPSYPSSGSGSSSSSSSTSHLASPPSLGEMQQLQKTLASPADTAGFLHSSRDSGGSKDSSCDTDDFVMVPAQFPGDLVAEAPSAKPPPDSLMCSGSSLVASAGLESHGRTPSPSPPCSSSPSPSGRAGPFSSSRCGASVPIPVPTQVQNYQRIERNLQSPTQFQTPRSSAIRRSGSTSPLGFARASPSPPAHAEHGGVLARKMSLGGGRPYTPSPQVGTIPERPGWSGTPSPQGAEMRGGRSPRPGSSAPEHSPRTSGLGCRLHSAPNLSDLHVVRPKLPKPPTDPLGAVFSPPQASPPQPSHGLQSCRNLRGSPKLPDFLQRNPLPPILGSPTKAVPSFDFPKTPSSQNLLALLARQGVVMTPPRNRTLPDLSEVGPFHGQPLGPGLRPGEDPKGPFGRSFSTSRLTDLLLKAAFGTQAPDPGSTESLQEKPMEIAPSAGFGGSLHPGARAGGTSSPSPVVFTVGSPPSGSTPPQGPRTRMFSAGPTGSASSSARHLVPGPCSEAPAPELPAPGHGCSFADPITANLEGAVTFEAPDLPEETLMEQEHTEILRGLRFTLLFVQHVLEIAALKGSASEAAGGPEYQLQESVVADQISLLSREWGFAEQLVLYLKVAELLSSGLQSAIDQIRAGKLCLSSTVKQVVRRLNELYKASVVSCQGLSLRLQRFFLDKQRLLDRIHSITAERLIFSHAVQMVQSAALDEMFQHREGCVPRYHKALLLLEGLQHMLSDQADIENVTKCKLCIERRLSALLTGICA

ULK3 (human) = ULK3 (human) (UniProt Q6PHR2)

Sequence of ADCK4 (human) (Q96D53 whole entry, looked up): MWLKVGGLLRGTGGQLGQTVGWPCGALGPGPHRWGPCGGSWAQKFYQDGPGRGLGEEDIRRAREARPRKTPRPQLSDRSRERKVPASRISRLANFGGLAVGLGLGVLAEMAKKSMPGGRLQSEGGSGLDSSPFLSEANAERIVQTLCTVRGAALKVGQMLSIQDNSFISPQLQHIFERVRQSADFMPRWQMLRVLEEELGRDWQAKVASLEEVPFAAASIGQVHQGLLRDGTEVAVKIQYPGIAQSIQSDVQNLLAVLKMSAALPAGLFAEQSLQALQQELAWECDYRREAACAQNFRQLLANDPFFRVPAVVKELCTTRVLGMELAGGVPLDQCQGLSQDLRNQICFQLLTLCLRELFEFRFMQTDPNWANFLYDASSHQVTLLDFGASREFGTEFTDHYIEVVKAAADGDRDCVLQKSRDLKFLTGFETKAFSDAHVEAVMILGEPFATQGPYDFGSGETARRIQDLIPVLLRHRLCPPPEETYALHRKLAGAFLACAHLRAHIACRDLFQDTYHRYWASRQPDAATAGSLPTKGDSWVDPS

COc1cc(N2CCN(C)CC2)ccc1Nc1ncc2c(n1)N(C)c1sccc1C(=O)N2C
kinase still bound, per cent of control [1]: 66% | kinase still bound, per cent of control (ABL2 (human)): 92% | kinase still bound, per cent of control (ADCK4 (human)): 78% | kinase still bound, per cent of control (AKT1 (human)): 100% | kinase still bound, per cent of control (CAMK1 (human)): 71% | kinase still bound, per cent of control (CAMK2B (human)): 58% | kinase still bound, per cent of control (CDK2 (human)): 92% | kinase still bound, per cent of control (CSF1R (human)): 54% | kinase still bound, per cent of control (EGFR (human)): 80% and 87% | kinase still bound, per cent of control [2]: 78% | kinase still bound, per cent of control [3]: 46% | kinase still bound, per cent of control (EPHB2 (human)): 100% | kinase still bound, per cent of control (ERBB2 (human)): 89% | kinase still bound, per cent of control (FES (human)): 100% | kinase still bound, per cent of control (FGR (human)): 98% | kinase still bound, per cent of control (FLT1 (human)): 100% | kinase still bound, per cent of control (HCK (human)): 100% | kinase still bound, per cent of control (IRAK3 (human)): 77% | kinase still bound, per cent of control (LIMK1 (human)): 100% | kinase still bound, per cent of control (MAP3K10 (human)): 97% | kinase still bound, per cent of control (MAP3K4 (human)): 71% | kinase still bound, per cent of control (MAP4K5 (human)): 99% | kinase still bound, per cent of control (MAPK10 (human)): 70% | kinase still bound, per cent of control (MAPK3 (human)): 95% | kinase still bound, per cent of control (MAPKAPK2 (human)): 89% | kinase still bound, per cent of control (MERTK (human)): 100% | kinase still bound, per cent of control (MST1R (human)): 76% | kinase still bound, per cent of control (NEK5 (human)): 94% | kinase still bound, per cent of control (NLK (human)): 100% | kinase still bound, per cent of control (NUAK2 (human)): 8% | kinase still bound, per cent of control (PIK3CA (human)): 97% | kinase still bound, per cent of control (PRKACB (human)): 100% | kinase still bound, per cent of control (PRKCE (human)): 97% | kinase still bound, per cent of control (PRKCH (human)): 95% | kinase still bound, per cent of control (PTK2B (human)): 88% | kinase still bound, per cent of control (SGK110 (human)): 55% | kinase still bound, per cent of control (SRPK1 (human)): 100% | kinase still bound, per cent of control (STK32B (human)): 100% | kinase still bound, per cent of control (SYK (human)): 100% | kinase still bound, per cent of control (TYRO3 (human)): 76% | kinase still bound, per cent of control (ULK1 (human)): 6.5% | kinase still bound, per cent of control (ULK3 (human)): 100%

COc1cc(N2CCC(O)CC2)ccc1Nc1ncc2c(n1)N1CCc3cccc(c31)C(=O)N2C
kinase still bound, per cent of control [1]: 100% | kinase still bound, per cent of control (ABL2 (human)): 96% | kinase still bound, per cent of control (ADCK4 (human)): 86% | kinase still bound, per cent of control (AKT1 (human)): 100% | kinase still bound, per cent of control (CAMK1 (human)): 78% | kinase still bound, per cent of control (CAMK2B (human)): 72% | kinase still bound, per cent of control (CDK2 (human)): 87% | kinase still bound, per cent of control (CSF1R (human)): 67% | kinase still bound, per cent of control (EGFR (human)): 59% and 83% | kinase still bound, per cent of control [2]: 81% | kinase still bound, per cent of control [3]: 64% | kinase still bound, per cent of control (EPHB2 (human)): 94% | kinase still bound, per cent of control (ERBB2 (human)): 92% | kinase still bound, per cent of control (FES (human)): 93% | kinase still bound, per cent of control (FGR (human)): 93% | kinase still bound, per cent of control (FLT1 (human)): 100% | kinase still bound, per cent of control (HCK (human)): 100% | kinase still bound, per cent of control (IRAK3 (human)): 84% | kinase still bound, per cent of control (LIMK1 (human)): 96% | kinase still bound, per cent of control (MAP3K10 (human)): 100% | kinase still bound, per cent of control (MAP3K4 (human)): 84% | kinase still bound, per cent of control (MAP4K5 (human)): 99% | kinase still bound, per cent of control (MAPK10 (human)): 42% | kinase still bound, per cent of control (MAPK3 (human)): 99% | kinase still bound, per cent of control (MAPKAPK2 (human)): 100% | kinase still bound, per cent of control (MERTK (human)): 100% | kinase still bound, per cent of control (MST1R (human)): 82% | kinase still bound, per cent of control (NEK5 (human)): 81% | kinase still bound, per cent of control (NLK (human)): 73% | kinase still bound, per cent of control (NUAK2 (human)): 60% | kinase still bound, per cent of control (PIK3CA (human)): 84% | kinase still bound, per cent of control (PRKACB (human)): 100% | kinase still bound, per cent of control (PRKCE (human)): 91% | kinase still bound, per cent of control (PRKCH (human)): 100% | kinase still bound, per cent of control (PTK2B (human)): 57% | kinase still bound, per cent of control (SGK110 (human)): 100% | kinase still bound, per cent of control (SRPK1 (human)): 100% | kinase still bound, per cent of control (STK32B (human)): 100% | kinase still bound, per cent of control (SYK (human)): 100% | kinase still bound, per cent of control (TYRO3 (human)): 100% | kinase still bound, per cent of control (ULK1 (human)): 78% | kinase still bound, per cent of control (ULK3 (human)): 100%
